Test results reported in patent US20190388459A1, “NEW THERAPEUTIC USES” (ATLANTIC PHARMACEUTICALS (HOLDINGS) LTD, priority 2017, published 2019).
Marks after values point to notes of the source that are not given here.

Assays:
[1] = system: OVA-induced allergic asthma mouse model; assay: Ovalbumin-induced murine model of allergic asthma, BALF analysis; assay type: in vivo, Balb/c mice; settings: Day 28, alicaforsen 1 mM IN 30 μl, dexamethasone 10 mg/kg IP, days 14, 25-27
Protocol: Allergic asthma was modeled in female BALB/c mice by initial sensitization to OVA followed by subsequent intranasal challenge of purified OVA.
Mice were monitored throughout the study for changes in body weight and general signs of sickness. Allergic response to OVA was measured by examining bronchoalveolar lavage fluid (BALF) for inflammatory cell influx and the presence of the inflammatory cytokine IL-13.
On days 0 and 14, each animal was administered an IP injection of 200 μL OVA/Alum emulsion containing 100 μg OVA.
On days 14 and 25-27, each animal was administered an intranasal challenge of 30 μL PBS containing 50 μg OVA.
Treatments were performed on the same days as OVA challenge on Study Days 14 and 25-27 (4 total treatments). Treatments were administered 1 hour following OVA challenge.
10 mg/kg dexamethasone was administered in 200 μL volume/animal (intraperitoneal) on Study Days 14 and 25-27 (4 total treatments).
Bonchoalveolar lavage was performed on euthanised animals. Briefly, an angiocatheter was placed into trachea. 1 mL of PBS was instilled into the lungs and allowed to flow back out into the syringe; the PBS was then instilled and removed again. The resultant Bronchoalveolar lavage fluid (BALF) was centrifuged at 500×g for 5 mins.
The non-cellular portion of the BALF was stored at −80° C. The levels of IL-13 were analyzed by Luminex technology.
The cellular portion of the BALF was used to analyze the cell influx. The total number of leukocytes within the BALF and different cell types present were examined via flow cytometry.
Granulocytes: CD45^+; Non-autofluorescent; Gr-1^+
Eosinophils: CD45^+; Non-autofluorescent; Gr-1^+; Siglec F^+

TLR9 [2] = molecular target: T1, TLR9 (Homo sapiens, UniProt Q9NR96); assay: TLR-9 antagonist activity with E. coli genomic DNA as the activator; assay type: cell-based
T1 sequence (Q9NR96 26-1032): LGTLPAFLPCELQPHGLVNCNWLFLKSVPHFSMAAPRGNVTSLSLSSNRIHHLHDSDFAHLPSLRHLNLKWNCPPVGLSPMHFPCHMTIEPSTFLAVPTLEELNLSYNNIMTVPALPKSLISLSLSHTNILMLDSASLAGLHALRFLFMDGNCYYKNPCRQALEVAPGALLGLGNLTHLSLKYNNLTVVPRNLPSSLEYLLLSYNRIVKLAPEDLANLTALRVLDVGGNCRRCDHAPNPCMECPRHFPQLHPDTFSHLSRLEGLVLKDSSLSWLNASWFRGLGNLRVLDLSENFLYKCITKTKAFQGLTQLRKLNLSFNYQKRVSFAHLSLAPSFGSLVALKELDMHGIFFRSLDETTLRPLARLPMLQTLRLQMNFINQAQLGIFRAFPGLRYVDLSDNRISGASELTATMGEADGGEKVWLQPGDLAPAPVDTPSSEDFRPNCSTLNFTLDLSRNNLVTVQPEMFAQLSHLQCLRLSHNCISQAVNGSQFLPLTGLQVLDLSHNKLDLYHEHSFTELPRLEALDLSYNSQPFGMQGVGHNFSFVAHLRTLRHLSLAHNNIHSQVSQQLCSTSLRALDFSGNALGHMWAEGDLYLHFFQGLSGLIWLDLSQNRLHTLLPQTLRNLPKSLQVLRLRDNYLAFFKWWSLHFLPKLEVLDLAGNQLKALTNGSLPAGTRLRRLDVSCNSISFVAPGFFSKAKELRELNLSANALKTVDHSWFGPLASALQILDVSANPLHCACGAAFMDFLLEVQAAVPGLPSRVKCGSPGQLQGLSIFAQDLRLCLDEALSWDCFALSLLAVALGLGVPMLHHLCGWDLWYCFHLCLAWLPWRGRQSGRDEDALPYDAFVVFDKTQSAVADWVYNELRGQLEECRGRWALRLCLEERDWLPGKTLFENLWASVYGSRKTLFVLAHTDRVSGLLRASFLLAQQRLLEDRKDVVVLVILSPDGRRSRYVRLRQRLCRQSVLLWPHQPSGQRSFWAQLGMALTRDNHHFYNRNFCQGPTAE

[3] = Circular Dichroism spectroscopy, thermal stability of secondary structure; assay type: physicochemical
From the text: SEQ ID NO: 1 was therefore subjected to Circular Dichroism (CD) spectroscopy to gather information about the possible secondary structure. CD of DNA can be utilized to detect all 3 major forms of duplex structure (B, A and Z) and is sensitive to conditions that disrupt the structure such a heating. Of interest was the stability of any secondary structure detected at or above physiologic temperatures.
Additional thermal denaturation of the putative duplex was also studied in the presence of Na^+ at concentrations of 50 mM and 150 mM. Sodium fluoride was used as Cl^− ions interfere with the CD spectra in this UV region.
Additional experiments were conducted to test the influence of Mg^++ and polyamines on the stability of the structure.

TLR9 [4] = molecular target: T1, TLR9; assay: Effect of heat, Na+, Mg++ and spermine pre-treatment on TLR-9 antagonist activity; assay type: cell-based; settings: pre-treated with 5 mM spermine, heated to 90° C. and cooled; 1.0 uM ODN2006
Protocol: The samples and conditions of these tests are diagramed in FIG. 9.
One sample remained at room temperature while the remaining samples were heated to 90° C. for 3 min and then allowed to cool to room temperature. The samples were then diluted to the indicated concentrations and incubated with the target cells for 1 hr, prior to the addition of 1.0 uM ODN2006 to stimulate TLR-9.

dry eye murine model = assay: Scopolamine dry eye murine model, corneal fluorescein staining and clinical signs; assay type: in vivo, Mouse C57BL/6N; settings: for Corneal fluorescein staining score (mean ± SD): one dose per day, topical both eyes
Protocol: In a model of mice, the application of transdermal scopolamine patches to the mid-tail is used to reduce aqueous tear production and thus mimic lacrimal gland insufficiency. The function of scopolamine is to induce a pharmacologic blockade of cholinergic receptors in the lacrimal gland and therefore to decrease aqueous production. The desiccation is amplified by adding environmental stress. Animals are exposed to a low-humidity environment and constant airflow.
Mice were treated with transdermal scopolamine administration (0.5 mg/72 h; Scopoderm TTS®). The transdermal scopolamine patch was wrapped near the tail base of the mouse, secured with cellophane tape. Patches were reapplied every 48 hours.
Mice were randomized into 4 groups of 10 animals. The study was divided into 2 experimental sets with 5 animals of each group represented.
All test items, control items and comparator item were instilled in both eyes (5 μL per administration), using a micropipette.
Tear production and corneal defects were assessed at baseline, on Days 3, 6 and 10 using phenol red thread (PRT) and corneal fluorescence staining (CFS), respectively, for each animal of the 4 groups.
Each day, the general clinical signs and the appearance of all animals was observed.
At the different time points the measurement was performed before administration on Day 3 and at least one hour after the second treatment for the other days of the study. The eyes of the animals from all groups were examined by slit-lamp observation using blue light after 0.5% fluorescein eye drop instillation (0.5 μL). Punctuate staining was recorded with the standardized National Eye Institute (NEI) grading system giving a 0-3 score to each of the 5 areas in which the corneas were divided.

TLR9 [5] = molecular target: T1, TLR9; assay: TLR9 activation (agonist) screen, TLR9/NF-kB luciferase reporter HEK 293 cell line; assay type: cell-based; parameters: host or cells: HEK 293 (TLR9/NF-kB luciferase reporter line); settings: up to concentrations as high as 100 uM
Protocol: […] Briefly, the TLR9/NF-kB luciferase reporter HEK 293 cell line (Abeomics, San Diego, Calif.) was plated in 96-well white solid plates at 5×10^4 cells per well for 16 h. […] Luciferase activity was then measured and analyzed.

TLR9 [6] = molecular target: T1, TLR9; assay: Inhibition of TLR9-mediated NF-kB induction activated by CpG ODN2006, luciferase reporter HEK 293 cell line; assay type: cell-based; parameters: host or cells: HEK 293 (TLR9/NF-kB luciferase reporter line)
Protocol: Briefly, the TLR9/NF-kB luciferase reporter HEK 293 cell line was plated in 96-well white solid plates at 5×10^4 cells per well for 16 h. […] Cells were then treated with 20 ug/ml of CpG ODN2006 to activate TLR9. After 16 h, luciferase activity was measured and analyzed.

Compound	BALF IL-13, Mean [1]	Total CD45 cells in BALF, Mean [1]	Eosinophil (Frequency of CD45+) in BALF, Mean ([1]; in % (unit assumed))	Granulocyte (Frequency of CD45+) in BALF, Mean ([1]; in % (unit assumed))	antagonism of TLR-9 activation by E. coli genomic DNA (TLR9 [2])	effect of spermine on secondary structure ([3]; 5 mM spermine in the presence of 50 mM Na+)	structure retained (190 nm peak intensity) ([3]; 50 and 150 mM sodium, 40° C.)	loss of signal strength of 190 nm CD band ([3]; ddH20, heating to 80° C.) [%]	TLR-9 inhibitory activity of spermine-treated samples (TLR9 [4])	tolerability of multiple topical administrations (dry eye murine model; 1 mM and 10 mM, topical ocular)	Corneal fluorescein staining score (mean ± SD) (dry eye murine model; Day 6, 1 mM)	Corneal fluorescein staining score (mean ± SD) (dry eye murine model; Day 6, 10 mM)	Corneal fluorescein staining score (mean ± SD) (dry eye murine model; Day 10, 1 mM, listed as ALICAFORSEN)	Corneal fluorescein staining score (mean ± SD) (dry eye murine model; Day 10, 1 mM, listed as alicaforsen)	Corneal fluorescein staining score (mean ± SD) (dry eye murine model; Day 10, 10 mM, listed as ALICAFORSEN)	Corneal fluorescein staining score (mean ± SD) (dry eye murine model; Day 10, 10 mM, listed as alicaforsen)	agonist activity at TLR-9 (TLR9 [5])	TLR-9 antagonism (TLR9 [6]; ODN2006 as activator)	concentration needed for TLR-9 antagonism relative to inhibition of ICAM-1 expression (TLR9 [6]; comparative dose responses, FIG. 3)
C[C@@H]1C[C@H]2[C@@H]3CCC4=CC(=O)C=C[C@]4(C)[C@@]3(F)[C@@H](O)C[C@]2(C)[C@@]1(O)C(=O)CO [Dexamethasone]	13.2** pg/ml	236574	46.60**	51.88**															
alicaforsen (GCCCAAGCTGGCATCCGTCA; chemistry not given here; listed as Homo sapiens) [SEQ ID NO: 1]					remained antagonistic to activation of TLR-9	completely abolished the secondary structure	at least 50%	> 85	some activity is still observed	clinically well tolerated	10.5 ± 2.6	10.8 ± 2.0	9.3 ± 3.1	lower than the Vehicle group	9.7 ± 2.2	lower than the Vehicle group	devoid of agonist activity	antagonist of TLR-9	requires higher concentrations than the inhibition of ICAM-1 expression
